From patent US11554171B2, “Compounds and methods for the targeted degradation of bromodomain-containing proteins” (Arvinas Operations, Inc., priority 2015, dated 2023)

Test system: c-myc in 22RV-1 cells
Test: Human c-myc ELISA assay
Format: cell-based
Details: Homo sapiens; for Emax: 22Rv1, 18 h, read-out: Degradation of BRD4: Maximum inhibition (%) c-Myc ELISA in 22RV1 cells; for DC50: 22Rv1, read-out: Degradation of BRD4: DC50 (uM) c-Myc ELISA in 22RV1 cells
Outline: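 22RV-1 cells treated 18 h with 8-point 1:3 compound dilutions (final top 300 nM or 1 μM, 0.1% DMSO). Cells lysed in RIPA buffer with protease/phosphatase inhibitors, and c-myc protein in cleared lysate quantified by ELISA against a standard curve. DC50 reported for c-myc suppression.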

In the case of `Cc1ncsc1-c1ccc([C@H](C)NC(=O)[C@@H]2C[C@@H](O)CN2C(=O)[C@H](C(C)C)n2cc(-c3ccnc(O[C@H]4C[C@H](NC(=O)C[C@@H]5N=C(c6ccc(Cl)cc6)c6c(sc(C)c6C)-n6c(C)nnc65)C4)c3)cn2)cc1` [Example 228, (2S,4R)-4-hydroxy-N-[(1S)-1-[4-(4-methyl-1,3-thiazol-5-yl)phenyl]ethyl]-1-[(2S)-3-methyl-2-(4-{2-[(1r,3r)-3-{2-[(9S)-7-(4-chlorophenyl)-4,5,13-trimethyl-3-thia-1,8,11,12-tetraazatricyclo[8.3.0.0^2,^6]trideca-2(6),4,7,10,12-pentaen-9-yl]acetamido}cyclobutoxy]pyridin-4-yl}-1H-pyrazol-1-yl)butanoyl]pyrrolidine-2-carboxamide], the Emax is reported as 100% and the DC50 is reported as < 0.01 µM.
With `Cc1ncsc1-c1ccc([C@H](C)NC(=O)[C@@H]2C[C@@H](O)CN2C(=O)[C@@H](NC(=O)/C=C/c2cccc(OCCNC(=O)C[C@@H]3N=C(c4ccc(Cl)cc4)c4c(sc(C)c4C)-n4c(C)nnc43)c2)C(C)(C)C)cc1` [Example 122] the Emax was 100% and the DC50 was < 0.01 µM.
`Cc1ncsc1-c1ccc(CNC(=O)[C@@H]2C[C@@H](O)CN2C(=O)[C@H](c2cc(OCCCCCNC(=O)C[C@@H]3N=C(c4ccc(Cl)cc4)c4c(sc(C)c4C)-n4c(C)nnc43)no2)C(C)C)cc1` [Example 120] was tested, and the Emax was 79.5% and the DC50 was 0.1 to 1 µM.
`Cc1ncsc1-c1ccc([C@H](C)NC(=O)[C@@H]2C[C@@H](O)CN2C(=O)[C@@H](NC(=O)CN2CCC(O[C@H]3C[C@H](NC(=O)C[C@@H]4N=C(c5ccc(Cl)cc5)c5c(sc(C)c5C)-n5c(C)nnc54)C3)CC2)C(C)(C)C)cc1` [Example 306, (2S,4R)-1-[(2S)-3,3-dimethyl-2-(2-{4-[(1,3-trans)-3-{2-[(9S)-7-(4-chlorophenyl)-4,5,13-trimethyl-3-thia-1,8,11,12-tetraazatricyclo[8.3.0.0^2,^6]trideca-2(6),4,7,10,12-pentaen-9-yl]acetamido}cyclobutoxy]piperidin-1-yl}acetamido)butanoyl]-4-hydroxy-N-[(1S)-1-[4-(4-methyl-1,3-thiazol-5-yl)phenyl]ethyl]pyrrolidine-2-carboxamide] was tested, and the Emax was 100% and the DC50 was < 0.01 µM.
In the case of `Cc1ncsc1-c1ccc(CNC(=O)[C@@H]2C[C@@H](O)CN2C(=O)[C@@H](NC(=O)COCCCOCCCCCOc2ccc3c(c2)c2c(C(N)=O)cc(-c4c(C)noc4C)cc2n3Cc2ccccc2)C(C)(C)C)cc1` [Example 143, 9-benzyl-2-(dimethyl-1,2-oxazol-4-yl)-6-({5-[3-({[(2S)-1-[(2S,4R)-4-hydroxy-2-({[4-(4-methyl-1,3-thiazol-5-yl)phenyl]methyl}carbamoyl)pyrrolidin-1-yl]-3,3-dimethyl-1-oxobutan-2-yl]carbamoyl}methoxy)propoxy]pentyl}oxy)-9H-carbazole-4-carboxamide], the Emax is reported as 100% and the DC50 is reported as < 0.01 µM.
Molecule `Cc1ncsc1-c1ccc(CNC(=O)[C@@H]2C[C@@H](O)CN2C(=O)[C@@H](NC(=O)COCCCOCCCOc2ccc(NC(=O)C[C@@H]3N=C(c4ccc(Cl)cc4)c4c(sc(C)c4C)-n4c(C)nnc43)cc2F)C(C)(C)C)cc1` [Example 19] has an Emax of 92% and a DC50 of 0.01 to 0.1 µM.
With `Cc1sc2c(c1C)C(c1ccc(Cl)cc1)=N[C@@H](CC(=O)N[C@H]1C[C@@H](Oc3ccc(OCC(=O)N[C@H](C(=O)N4C[C@H](O)C[C@H]4C(=O)N[C@@H](C)c4ccc(-c5nccn5C)cc4)C(C)(C)C)cn3)C1)c1nnc(C)n1-2` [Example 260] the Emax was 13% and the DC50 was > 1 µM.
`Cc1ncsc1-c1ccc(CNC(=O)[C@@H]2C[C@@H](O)CN2C(=O)[C@@H](NC(=O)COCCOCCOCCCCOCCOCCNC(=O)C[C@@H]2N=C(c3ccc(Cl)cc3)c3c(sc(C)c3C)-n3c(C)nnc32)C(C)(C)C)cc1` [Example 9] gave an Emax of 96.4% and a DC50 of 0.1 to 1 µM.
In the case of `Cc1ncsc1-c1ccc([C@H](C)NC(=O)[C@@H]2C[C@@H](O)CN2C(=O)[C@@H](NC(=O)COCCOCCCOc2ccc([C@H](C)NC(=O)CC3N=C(c4ccc(Cl)cc4)c4c(sc(C)c4C)-n4c(C)nnc43)cc2)C(C)(C)C)cc1` (stereo partly shown) [Example 108], the Emax is reported as 95.4% and the DC50 is reported as 0.1 to 1 µM.
For `Cc1ncsc1-c1ccc(CNC(=O)[C@@H]2C[C@@H](O)CN2C(=O)[C@@H](NC(=O)Cc2ccc3cc(CCNC(=O)C[C@@H]4N=C(c5ccc(Cl)cc5)c5c(sc(C)c5C)-n5c(C)nnc54)oc3c2)C(C)(C)C)cc1` [Example 97], the Emax was 100% and the DC50 was < 0.01 µM.
`Cc1ncsc1-c1ccc([C@H](C)NC(=O)[C@@H]2C[C@@H](O)CN2C(=O)[C@@H](NC(=O)COc2ccnc(N3CCN(C(=O)C[C@@H]4N=C(c5ccc(Cl)cc5)c5c(sc(C)c5C)-n5c(C)nnc54)CC3)c2)C(C)(C)C)cc1` [Example 327, (2S,4R)-1-[(2S)-2-(2-{[2-(4-{2-[(9S)-7-(4-chlorophenyl)-4,5,13-trimethyl-3-thia-1,8,11,12-tetraazatricyclo[8.3.0.0^2,^6]trideca-2(6),4,7,10,12-pentaen-9-yl]acetyl}piperazin-1-yl)pyridin-4-yl]oxy}acetamido)-3,3-dimethylbutanoyl]-4-hydroxy-N-[(1S)-1-[4-(4-methyl-1,3-thiazol-5-yl)phenyl]ethyl]pyrrolidine-2-carboxamide] was tested, and the Emax was 96% and the DC50 was < 0.01 µM.
With `Cc1ncsc1-c1ccc([C@H](C)NC(=O)[C@@H]2C[C@@H](O)CN2C(=O)[C@@H](NC(=O)/C=C/c2cccc(O[C@H](C)CNC(=O)C[C@@H]3N=C(c4ccc(Cl)cc4)c4c(sc(C)c4C)-n4c(C)nnc43)c2)C(C)(C)C)cc1` [Example 159] the Emax was 96.5% and the DC50 was < 0.01 µM.
With `Cc1ncsc1-c1ccc(CNC(=O)[C@@H]2C[C@@H](O)CN2C(=O)[C@@H](NC(=O)Cc2cccc(OCCCNC(=O)C[C@@H]3N=C(c4ccc(Cl)cc4)c4c(sc(C)c4C)-n4c(C)nnc43)c2)C(C)(C)C)cc1` [Example 61, (2S,4R)-1-[(2S)-2-{2-[3-(3-{2-[(9S)-7-(4-chlorophenyl)-4,5,13-trimethyl-3-thia-1,8,11,12-tetraazatricyclo[8.3.0.0^2,^6]trideca-2(6),4,7,10,12-pentaen-9-yl]acetamido}propoxy)phenyl]acetamido}-3,3-dimethylbutanoyl]-4-hydroxy-N-{[4-(4-methyl-1,3-thiazol-5-yl)phenyl]methyl}pyrrolidine-2-carboxamide] the Emax was 96% and the DC50 was 0.01 to 0.1 µM.
In the case of `Cc1ncsc1-c1ccc(CNC(=O)[C@@H]2C[C@@H](O)CN2C(=O)[C@@H](C(C)C)n2cc(-c3ccnc(O[C@H]4C[C@H](NC(=O)C[C@@H]5N=C(c6ccc(Cl)cc6)c6c(sc(C)c6C)-n6c(C)nnc65)C4)c3)cn2)cc1` [Example 225, (2S,4R)-4-hydroxy-N-{[4-(4-methyl-1,3-thiazol-5-yl)phenyl]methyl}-1-[(2R)-3-methyl-2-(4-{2-[(1,3trans)-3-{2-[(9 S)-7-(4-chlorophenyl)-4,5,13-trimethyl-3-thia-1,8,11, 12-tetraazatricyclo[8.3.0.0^2,^6]trideca-2(6),4,7,10,12-pentaen-9-yl]acetamido}cyclobutoxy]pyridin-4-yl}-1H-pyrazol-1-yl)butanoyl]pyrrolidine-2-carboxamide], the Emax is reported as 50.4% and the DC50 is reported as > 1 µM.
With `Cc1ncsc1-c1ccc([C@H](C)NC(=O)[C@@H]2C[C@@H](O)CN2C(=O)[C@@H](NC(=O)COc2ccc(O[C@H]3C[C@H](NC(=O)C[C@@H]4N=C(c5ccc(Cl)cc5)c5c(sc(C)c5C)-n5c(C)nnc54)C3)nc2)C(C)(C)C)cc1` [Example 141, (2S,4R)-1-[(2S)-3,3-dimethyl-2-[2-({6-[(1,3trans)-3-{2-[(9S)-7-(4-chlorophenyl)-4,5,13-trimethyl-3-thia-1,8,11,12-tetraazatricyclo[8.3.0.0^2,^6]trideca-2(6),4,7,10,12-pentaen-9-yl]acetamido}cyclobutoxy]pyridin-3-yl}oxy)acetamido]butanoyl]-4-hydroxy-N-[(1S)-1-[4-(4-methyl-1,3-thiazol-5-yl)phenyl]ethyl]pyrrolidine-2-carboxamide] the Emax was 98% and the DC50 was < 0.01 µM.
`Cc1ncsc1-c1ccc([C@H](C)NC(=O)[C@@H]2C[C@@H](O)CN2C(=O)[C@@H](NC(=O)CN2CCN(C3CC4(C3)CN(C(=O)C[C@@H]3N=C(c5ccc(Cl)cc5)c5c(sc(C)c5C)-n5c(C)nnc53)C4)C[C@H]2C)C(C)(C)C)cc1` [Example 356] was tested, and the Emax was 100% and the DC50 was 0.01 to 0.1 µM.
For `Cc1ncsc1-c1ccc(CNC(=O)[C@@H]2C[C@@H](O)CN2C(=O)[C@@H](NC(=O)c2ccn(CCOCCNC(=O)C[C@@H]3N=C(c4ccc(Cl)cc4)c4c(sc(C)c4C)-n4c(C)nnc43)n2)C(C)(C)C)cc1` [Example 91], the Emax was < 5% and the DC50 was > 1 µM.
With `Cc1sc2c(c1C)C(c1ccc(Cl)cc1)=N[C@@H](CC(=O)N[C@H]1C[C@@H](Oc3ccc4oc(C(=O)N[C@H](C(=O)N5C[C@H](O)C[C@H]5C(=O)N[C@@H](C)c5ccc(-c6scnc6CO)cc5)C(C)(C)C)cc4c3)C1)c1nnc(C)n1-2` [Example 342, (2S,4R)-1-[(2S)-3,3-dimethyl-2-({5-[(1,3-cis)-3-{2-[(9S)-7-(4-chlorophenyl)-4,5,13-trimethyl-3-thia-1,8,11,12-tetraazatricyclo[8.3.0.0^2,^6]trideca-2(6),4,7,10,12-pentaen-9-yl]acetamido}cyclobutoxy]-1-benzofuran-2-yl}formamido)butanoyl]-4-hydroxy-N-[(1S)-1-{4-[4-(hydroxymethyl)-1,3-thiazol-5-yl]phenyl}ethyl]pyrrolidine-2-carboxamide] the Emax was 100% and the DC50 was < 0.01 µM.
`Cc1ncsc1-c1ccc(CNC(=O)[C@@H]2C[C@@H](O)CN2C(=O)[C@@H](NC(=O)COCCO[C@H]2C[C@@H](NC(=O)C[C@@H]3N=C(c4ccc(Cl)cc4)c4c(sc(C)c4C)-n4c(C)nnc43)C2)C(C)(C)C)cc1` [Example 138] gave an Emax of 89.4% and a DC50 of 0.1 to 1 µM.
With `Cc1ncsc1-c1ccc(CNC(=O)[C@@H]2C[C@@H](O)CN2C(=O)[C@@H](C(C)C)n2cc(-c3ccnc(O[C@@H](C)CNC(=O)C[C@@H]4N=C(c5ccc(Cl)cc5)c5c(sc(C)c5C)-n5c(C)nnc54)c3)cn2)cc1` [Example 179] the Emax was 13.9% and the DC50 was > 1 µM.
